Data set [1] can be described thus: Molar enthalpy of transition or fusion. Particulars: Crystal; DSC.
The conditions of data set [2]: Crystal; DSC.

The structures appear in SMILES notation. Numbers after ± are expanded uncertainties.

Turning to `CCOC(=O)c1ccc(N)cc1` [ethyl 4-aminobenzoate], the “Molar enthalpy of transition or fusion” value in data set [1] is 5.24 ± 0.237 kcal/mol. Further, the Triple point temperature in data set [2] is reported as 363.2 ± 1.2 K.

Source of the values: the NIST ThermoML archive (doi:10.1021/acs.jced.6b00037).
